# Experiments:
# [1] = tested on: monoclonal antibody 5-21-3; test: Immunoprecipitation of 125I synthetic peptides by 5-21-3; assay type: binding, mouse
# Method: (§1) Synthetic peptides were radiolabeled with¹²⁵I (Amersham) by the chloramine T method (W.M. Hunter, "Radioimmunoassay" in D.M. Weir, Ed., Handbook of Experimental Immunology, [Blackwell Scientific Publications, 1973]). Generally, 2-6 ul of 100 mCi/ml ¹²⁵I were added to 10-50 ug of peptide in PBS, pH 7.4. Approximately 10 ug of freshly prepared (1 mg/ml in PBS) chloramine T were added to the mixture maintained at 4°C. After 5 min., [¹²⁵I]peptide was separated from free ¹²⁵I by passage of the reaction mixture through a 3 ml (bed volume) column of Biogel P-6 or P-2, as required. Fractions (200 ul each) containing [¹²⁵I]peptide were pooled and diluted into PBS containing 20% fetal calf serum. Rough estimations of¹²⁵I cpm bound to peptide were made by acid precipitation. An aliquot of labeled peptide was diluted into 1 ml of ice cold 50% trichloroacetic acid (TCA) overlaying a 0.45 um filter (made of mixed cellulose esters) set on a scintered glass filter connected to a vacuum apparatus. Precipitated protein was fixed onto the filter by application of vacuum, and filters were washed with ice-cold 50% TCA. Background cpm adhering non-specifically to the filter were estimated by repeating the procedure using a non-precipitating buffer. Amounts of peptide, ¹²⁵I, chloramine T, and composition of column eluting buffer were subject to change depending on conditions required to maintain solubility of each peptide.
# Synthetic peptides radiolabeled with¹²⁵I were diluted into PBS (pH 7.4) containing 0.1% Triton X-100 (or other detergents where indicated) and 1.0% BSA, to yield approximately 2.5-5 X 10⁵ acid-precipitable cpm per 0.1 ml. Purified monoclonal IgG 5-21-3 and 10-15-63 were employed in the assay. Monoclonal antibodies were diluted into PBS containing 0.1% Triton X-100 (or other detergents where indicated), 1.0% BSA, and 2% normal mouse serum as a carrier immunoglobulin. Immune rabbit serum (anti-P58-130) was diluted appropriately into the same buffer except that normal rabbit serum (2%) was substituted for normal mouse serum as the carrier immunoglobulin. A reaction mixture comprising 0.1 ml [¹²⁵I] peptide (5 X l0⁵ cpm/0.1 ml) and 0.1 ml diluted antibody was incubated 1 hr at […], followed by addition of 0.1 ml of a precipitating antibody, either goat anti-mouse IgG, or goat anti-rabbit IgG, corresponding to the primary antibody. The reaction mixture was incubated 1 hr at […] and then overnight at 4°C. The precipitate was collected by centrifugation (2,000 x g, 5 min., 20°C), washed once in PBS containing 0.1% Triton X-100 and 1.0% BSA, collected by centrifugation, and counted in an LKB 128 gamma counter. […]
# [2] = tested on: Binding of Antibody 5-21-3 to rp41; test: Binding inhibition assay: peptides blocking 5-21-3 binding to rp41; design: species or system mouse
# Method: Additional evidence for the conformational nature of the 5-21-3 epitope was obtained using binding inhibition studies, in which synthetic peptides were ranked for their ability to inhibit binding of 5-21-3 to rp41. First, the Fab dimer of an anti-gp41 monoclonal antibody was prepared by conventional methods (Goding et al., supra). Then 100 ul of a 1 mg/ml solution of the Fab dimer in bicarbonate buffer (pH 9.6) was coated onto Immulon II microtiter plates for 1 hr at 37°C. After washing with PBS containing 0.05% Tween 20, the plates were overcoated with 200 ul of 1.0% ovalbumin in bicarbonate buffer (pH 9.6) for 1 hr at 30°C. After washing, 100 ul of rp41 enriched E. coli lysate (as described in Example 3), diluted appropriately in PBS containing 0.05% Tween 20, were allowed to bind to the Fab dimer for 2 hr at 30°C. The plates were washed and stored at 4°C.
# Intact monoclonal antibody 5-21-3 IgG (purified from tissue culture fluid supporting growth of the cloned cell line 5-21-3) was titrated against the bound rp41 on the plate, and an antibody concentration was selected which yielded an A₄₉₂ value of 2.0-3.0. Usually, 0.4 pmol (0.06 ug) of 5-21-3 IgG per microtiter well was employed in these assays. Stock solutions of 5-21-3 IgG were prepared in PBS containing 0.1% Triton X-100 and 0.1% SDS. Dilutions of synthetic peptides were made in the same buffer (SDS was included in these experiments to keep peptides soluble at high concentrations).
# The binding inhibition assay was performed by combining 0.15 ml of 1.2 ug/ml 5-21-3 antibody stock solution with 0.15 ml of peptide at a selected peptide concentration, and incubating the reaction mixture 1 hr at room temp. Then 0.1 ml aliquots of each reaction mixture were added to each of two wells in the microtiter tray. After a 1 hr incubation at room temp., the plates were washed, and HRPO conjugated Goat anti-mouse IgG Fc was added for 1 hr at room temp. The plates were washed, and addition of OPD for color development identified the relative amounts of 5-21-3 bound to rp41 in the microtiter wells. The reaction was stopped by addition of 100 ul of 1N H₂S0₄, and the plates were read on a Dynatech II microtiter plate reader.
# [3] = tested on: monoclonal antibody 5-21-3; test: Immuno-dot blot of synthetic peptides with 5-21-3; assay type: binding, mouse; details: 25 ug/ml 5-21-3
# Source text: The western Blot procedure described in Example 1 was employed for development of immuno-dot blots using synthetic peptides, except that synthetic peptides were fixed to nitrocellulose by direct application using Drummond lambda pipettes, and air dried prior to blocking with 20% fetal calf serum in PBS (pH 7.4). Monoclonal IgG 5-21-3, and a second anti-HIV I gp41 monoclonal antibody (IgG) 10-15-63 (which recognizes an epitope distinct and separate from the epitope recognized by 5-21-3), were purified from mouse ascites using Protein A-Sepharose, and employed at the concentrations indicated.
# Immuno-dot blot results are illustrated in Figure 5 where synthetic peptides were spotted onto nitrocellulose as follows:(A) 10 ug P58-130, (B) 10 ug P67-154,(C) 6 ug P121-154 and (D) 9 ug of P126-162. The strips were reacted with 25 ug/ml monoclonal antibody 5-21-3, 25 ug/ml monoclonal antibody 10-15-63, 25 ug/ml normal mouse IgG, 2% mouse (M) anti-rp41 serum, 2% normal mouse serum (NMS), 2% Rabbit (R) anti-P58-130 serum, or 2% normal rabbit serum (NRS).
# [4] = tested on: Rabbit (R) anti-P58-130 serum; test: Immunoprecipitation of 125I synthetic peptides by rabbit anti-P58-130 serum; assay type: binding
# Method: as §1
# Synthetic peptides radiolabeled with¹²⁵I were diluted into PBS (pH 7.4) containing 0.1% Triton X-100 (or other detergents where indicated) and 1.0% BSA, to yield approximately 2.5-5 X 10⁵ acid-precipitable cpm per 0.1 ml. Purified monoclonal IgG 5-21-3 and 10-15-63 were employed in the assay. Monoclonal antibodies were diluted into PBS containing 0.1% Triton X-100 (or other detergents where indicated), 1.0% BSA, and 2% normal mouse serum as a carrier immunoglobulin. […] The precipitate was collected by centrifugation (2,000 x g, 5 min., 20°C), washed once in PBS containing 0.1% Triton X-100 and 1.0% BSA, collected by centrifugation, and counted in an LKB 128 gamma counter. […]
# [5] = tested on: monoclonal antibody 10-15-63; test: Immunoprecipitation of 125I synthetic peptides by 10-15-63; assay type: binding, mouse; details: 10 ug/0.2 ml reaction mixture; 0.1% Triton X-100, 1.0% BSA, carrier serum; second antibody precipitation
# Method: Synthetic peptides were radiolabeled with¹²⁵I (Amersham) by the chloramine T method (W.M. Hunter, "Radioimmunoassay" in D.M. Weir, Ed., Handbook of Experimental Immunology, [Blackwell Scientific Publications, 1973]). Generally, 2-6 ul of 100 mCi/ml ¹²⁵I were added to 10-50 ug of peptide in PBS, pH 7.4. Approximately 10 ug of freshly prepared (1 mg/ml in PBS) chloramine T were added to the mixture maintained at 4°C. After 5 min., [¹²⁵I]peptide was separated from free ¹²⁵I by passage of the reaction mixture through a 3 ml (bed volume) column of Biogel P-6 or P-2, as required. Fractions (200 ul each) containing [¹²⁵I]peptide were pooled and diluted into PBS containing 20% fetal calf serum. Rough estimations of¹²⁵I cpm bound to peptide were made by acid precipitation. […]
# Synthetic peptides radiolabeled with¹²⁵I were diluted into PBS (pH 7.4) containing 0.1% Triton X-100 (or other detergents where indicated) and 1.0% BSA, to yield approximately 2.5-5 X 10⁵ acid-precipitable cpm per 0.1 ml. […] The precipitate was collected by centrifugation (2,000 x g, 5 min., 20°C), washed once in PBS containing 0.1% Triton X-100 and 1.0% BSA, collected by centrifugation, and counted in an LKB 128 gamma counter. […]
# [6] = 10 ug/0.2 ml reaction mixture, 0.1% Triton X-100, 1.0% BSA, carrier serum, second antibody precipitation
# [7] = serum 20 ul/0.2 ml reaction mixture, 0.1% Triton X-100, 1.0% BSA, carrier serum, second antibody precipitation
substance,measurement,setting,value
"P121-154: synthetic peptide corresponding to gp41 amino acids 121-154 (DREINNYTSLIHSLIEESQNQQEKNEQELLELDK; Transmembrane protein gp41; UniProt P04578 632-665, looked up, fragment) [Peptide P121-154]",SPECIFIC PRECIPITATION (CPM) 5-21-3,[1]; [6],"40,717 CPM"
same,"x-fold increase of specific precipitation over non-specific precipitation, 5-21-3",[1]; [6],31 x-fold
same,binding of the peptide by antibody 5-21-3,"[1]; in words, summary of Table 4",provided an epitope which was recognized by 5-21-3
same,5-21-3 concentration required to demonstrate reactivity against the peptide,[1]; summary of Table 5,at least 100 ug/ml
same,"binding inhibition activity restored by flanking sequence, relative to P131-154",[2],20-65 fold
same,"binding inhibition activity, fold less active than P67-154",[2],20 fold
same,Molar Ratio,"[2]; at 50% inhibition of 5-21-3 binding, mean of two experiments","1,494 pmoles peptide/pmoles 5-21-3"
same,inhibition of 5-21-3 binding to rp41,"[2]; in words (Fig. 6, Table 6)",potent inhibitor
same,dot blot reactivity with antibody 5-21-3,[3]; mild washing procedures,"faint, diffuse reaction"
same,dot blot reactivity with antibody 5-21-3,[3]; peptide spotted on nitrocellulose,difficult to demonstrate
same,precipitation by rabbit anti-P58-130,"[4]; in words, summary of Table 4",strong precipitator
same,SPECIFIC PRECIPITATION (CPM) RαP58-130,[4]; [7],"310,419 CPM"
same,"x-fold increase of specific precipitation over non-specific precipitation, RαP58-130",[4]; [7],24 x-fold
same,SPECIFIC PRECIPITATION (CPM) 10-15-63,[5],371 CPM
same,"x-fold increase of specific precipitation over non-specific precipitation, 10-15-63",[5],1.3 x-fold

# Reference: patent EP0335134B1, “Mouse monoclonal antibody to human immunodeficiency virus gp41 protein” (ABBOTT LABORATORIES, priority 1988, dated 1989)
